Source: US8992932B2, “Binder-drug conjugates (ADCs) and use thereof” (Seattle Genetics, Inc., priority 2011, dated 2015)

What was measured:
tubulin = assay: Fluorescence-based microtubule polymerisation assay (DAPI); format: biochemical
Experimental: Tubulin polymerization was investigated using the “Fluorescence-based Microtubule Polymerisation Assay Kit” from Cytoskeleton (Denver, Colo., USA; order number: BK011). With this assay, GTP is added to unpolymerized tubulin, allowing polymerization to take place spontaneously. The assay is based on the binding of the fluorophore 4′,6-diamidino-2-phenylindole (DAPI) to tubulin. Free and bound DAPI can be differentiated on the basis of different emission spectra.
[…] In addition to the buffer control, paclitaxel, with a polymerization-increasing effect, and vinblastin, with a polymerization inhibiting effect, were run additionally as assay controls. Measurement was carried out using 96-well plates with a half base area. The kinetics of the tubulin polymerization were monitored in a Fluorimeter at 37° C. for 1 hour. The excitation wavelength was 355 nm, and emission was monitored at 460 nm. For the region of linear increase within the first 10 minutes, a calculation was made of the change in fluorescence per minute (AF/min), which represents the polymerization rate of the microtubuli. The potency of the test substances was quantified on the basis of their respective reduction of the polymerization rate.

Caco-2 cells = assay: Cell permeability flux assay using Caco-2 cells; format: in vitro ADME; conditions: basal to apical, 2 hours
Experimental: The cell permeability of a substance can be investigated by means of in vitro testing in a flux assay using Caco-2 cells [M. D. Troutman and D R Thakker, Pharm. Res. 20 (8), 1210-1224 (2003)]. For this purpose, the cells were cultured for 15-16 days on 24-well filter plates. For the determination of permeation, the respective working example was applied in a HEPES buffer to the cells either apically (A) or basally (B) and incubated for 2 hours. After 0 hours and after 2 hours, samples were taken from the cis and trans compartments. The samples were separated by HPLC (Agilent 1200, Boblingen, Germany) using reverse phase columns. The HPLC system was coupled via a Turbo Ion Spray Interface to a Triple Quadropol mass spectrometer API 4000 (Applied Biosystems Applera, Darmstadt, Germany). The permeability was evaluated on the basis of a Papp value, which was calculated using the formula published by Schwab et al. [D. Schwab et al., J. Med. Chem. 46, 1716-1725 (2003)].

P-glycoprotein (P-gp) = molecular target: T1, P-glycoprotein (P-gp) (Homo sapiens, UniProt P08183); assay: P-gp substrate flux assay in L-MDR1 cells; format: in vitro ADME; conditions: L-MDR1 cells (P-gp overexpressing LLC-PK1); basal to apical; 2 hours
T1 construct: expressed in transfected cells; host or cells: LLC-PK1 (pig kidney) cells transfected with human MDR1 (L-MDR1 cells)
T1 sequence (P08183 whole entry): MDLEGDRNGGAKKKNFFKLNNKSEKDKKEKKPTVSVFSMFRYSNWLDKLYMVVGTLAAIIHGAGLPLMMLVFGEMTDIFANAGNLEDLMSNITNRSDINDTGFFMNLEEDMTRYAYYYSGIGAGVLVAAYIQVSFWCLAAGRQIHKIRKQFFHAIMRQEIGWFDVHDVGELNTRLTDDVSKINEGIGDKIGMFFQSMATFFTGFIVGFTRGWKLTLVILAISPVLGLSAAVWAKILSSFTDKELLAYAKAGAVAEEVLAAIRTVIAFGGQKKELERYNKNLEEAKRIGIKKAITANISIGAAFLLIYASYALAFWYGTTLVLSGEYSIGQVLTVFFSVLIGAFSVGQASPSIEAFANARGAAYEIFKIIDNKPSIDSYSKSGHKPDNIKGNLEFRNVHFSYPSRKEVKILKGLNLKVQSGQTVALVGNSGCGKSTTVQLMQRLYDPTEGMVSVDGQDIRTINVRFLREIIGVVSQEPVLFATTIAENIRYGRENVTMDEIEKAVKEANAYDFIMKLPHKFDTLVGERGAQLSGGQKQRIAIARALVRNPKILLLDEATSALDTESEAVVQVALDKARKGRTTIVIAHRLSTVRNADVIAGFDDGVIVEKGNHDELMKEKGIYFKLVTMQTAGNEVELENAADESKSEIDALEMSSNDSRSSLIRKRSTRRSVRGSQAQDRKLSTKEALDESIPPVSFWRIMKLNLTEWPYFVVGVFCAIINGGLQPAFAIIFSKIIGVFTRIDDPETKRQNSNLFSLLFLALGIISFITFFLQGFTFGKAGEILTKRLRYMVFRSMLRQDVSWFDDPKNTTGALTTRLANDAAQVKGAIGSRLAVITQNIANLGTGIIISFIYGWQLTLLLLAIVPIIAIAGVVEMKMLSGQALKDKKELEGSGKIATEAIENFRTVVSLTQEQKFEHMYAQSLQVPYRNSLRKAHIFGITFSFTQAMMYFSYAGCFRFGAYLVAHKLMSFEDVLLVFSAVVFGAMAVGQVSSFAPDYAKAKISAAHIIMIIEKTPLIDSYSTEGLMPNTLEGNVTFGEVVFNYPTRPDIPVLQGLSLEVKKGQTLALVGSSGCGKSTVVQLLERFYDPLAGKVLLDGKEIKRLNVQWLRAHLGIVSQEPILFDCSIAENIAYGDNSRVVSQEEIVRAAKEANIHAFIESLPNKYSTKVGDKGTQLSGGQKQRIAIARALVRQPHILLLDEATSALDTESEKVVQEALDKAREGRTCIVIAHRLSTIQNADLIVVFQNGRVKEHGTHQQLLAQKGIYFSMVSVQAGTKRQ
Experimental: The substrate properties of a substance for P-gp (ABCB1) were determined by means of a flux assay using LLC-PK1 cells which overexpress P-gp (L-MDR1 cells) [A. H. Schinkel et al., J. Clin. Invest. 96, 1698-1705 (1995)]. For this purpose, the LLC-PK1 cells or L-MDR1 cells were cultured on 96-well filter plates for 3-4 days. For determination of the permeation, the respective test substance, alone or in the presence of an inhibitor (such as Ivermectin or Verapamil, for example), was applied in a HEPES buffer to the cells either apically (A) or basally (B) and incubated for 2 hours. After 0 hours and after 2 hours, samples were taken from the cis and trans compartments. The samples were separated by HPLC using reverse phase columns. The HPLC system was coupled via a Turbo Ion Spray Interface to a Triple Quadropol mass spectrometer API 3000 (Applied Biosystems Applera, Darmstadt, Germany). The permeability was evaluated on the basis of a Papp value which was calculated using the formula published by Schwab et al. [D. Schwab et al., J. Med. Chem. 46, 1716-1725 (2003)].

With “N-[6-(3-{[(2R)-2-Amino-2-carboxyethyl]sulphanyl}-2,5-dioxopyrrolidin-1-yl)hexyl]-N-methyl-L-valyl-N-[(3R,4S,5S)-1-{(2S)-2-[(1R,2R)-3-{R1S)-1-carboxy-2-(1H-indol-3-yl)ethyl]amino}-1-methoxy-2-methyl-3-oxopropyl]pyrrolidin-1-yl}-3-methoxy-5-methyl-1-oxoheptan-4-yl]-N-methyl-L-valinamide [Example 75]” the “Tubulin polymerization in the presence of toxophore in [%]. Tubulin polymerization rate at 1 μM MMAF set at 100%” value (tubulin; toxophore 1 μM) was 107%, the “Tubulin polymerization in the presence of toxophore in [%]. Tubulin polymerization rate at 1 μM MMAF set at 100%” value (tubulin; toxophore 10 μM) was 25% and the “Papp (B-A)” value (Caco-2 cells) was 0.1 ×10⁻⁶ cm/s. The “Papp (B-A)” value (P-glycoprotein (P-gp)) was 0.4 ×10⁻⁶ cm/s.
